# Experimental data reported in patent US8492377B2, “MTKI quinazoline derivatives” (Janssen Pharmaceutica NV, priority 2006, dated 2013).
# Counter-ions that a name gives are not always drawn.
# Biological target: human Src (Homo sapiens, UniProt P12931)
# Experiment: C1: c-Src filter assay
# Type: biochemical
# Conditions: 5 ng human Src, 1.0 μM unlabeled ATP, poly(Glu,Tyr) 4:1, 25° C., 10 minutes; read-out: C1: c-SRC filter pIC50 (converted)
# Description: The in vitro inhibition of c-Src kinase was assessed using the glass-fiber filter technology as described by Davies, S. P. et al., Biochem J. (2000), 351; p. 95-105.
# In the glass-fiber filter technology the activity of the kinase is measured using an appropriate substrate that is incubated with the aforementioned kinase protein in the presence of (^33P) radiolabeled ATP. (^33P) Phosporylation of the substrate is subsequently measured as radioactivity bound on a glassfiber-filter.
# In an alternative filter based assay the final kinase activity was assessed using a phosphostorage screen instead of scintilation counting.
# In this assay the Src kinase reaction is performed at 25° C. for 10 minutes in a 96-well microtiterplate. The 25 μl reaction volume contains 8 mM MOPS pH 7.0, 20 mM Mg-acetate, 0.2 mM Na2EDTA, 0.5 mM MnCl2, 1.0 μM unlabeled ATP, 0.2 μCi AT^33P, 20 ng poly(Glu,Tyr) 4:1 and 5 ng human Src.
# The reaction is stopped by adding 5 μl of a 3% phosphoric acid solution. 5 μl of the reaction mixture is then spotted onto a Filtermat A filter (Wallac) and washed 3 times for 5 min. in 75 mM phosphoric acid and 1 time for 5 min. in methanol prior to drying and quantification on the Typhoon (Amersham) using a phosphostorage screen.
# Chain of human Src (P12931 whole entry): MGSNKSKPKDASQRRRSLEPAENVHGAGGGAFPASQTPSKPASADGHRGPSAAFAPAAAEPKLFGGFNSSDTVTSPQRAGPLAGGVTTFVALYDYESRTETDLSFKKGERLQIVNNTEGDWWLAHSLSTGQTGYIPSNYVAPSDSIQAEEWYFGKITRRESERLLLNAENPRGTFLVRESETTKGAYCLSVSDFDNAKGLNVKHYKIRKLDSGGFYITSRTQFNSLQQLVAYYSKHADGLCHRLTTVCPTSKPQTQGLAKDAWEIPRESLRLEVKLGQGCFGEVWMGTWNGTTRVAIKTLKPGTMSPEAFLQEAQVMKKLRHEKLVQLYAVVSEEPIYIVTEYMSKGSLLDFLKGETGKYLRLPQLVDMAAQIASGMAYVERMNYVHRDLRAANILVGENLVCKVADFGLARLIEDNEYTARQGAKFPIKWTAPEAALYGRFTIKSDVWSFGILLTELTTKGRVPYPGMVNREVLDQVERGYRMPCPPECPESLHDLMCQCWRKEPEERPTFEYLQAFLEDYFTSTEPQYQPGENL
row,Structure (SMILES),IC50
1,CN1CCCCCOc2cc3c(ncnc3cc2OC[C@@H](O)CN2CCS(=O)(=O)CC2)Nc2c(ccc3c2OCO3)C1 [Compound B24],676 nM
2,CN1CCN(C(=O)OC(C)(C)C)CCCOc2cc3c(ncnc3cc2O)Nc2c(ccc3c2OCO3)C1 [Compound A24],> 10000 nM
3,COCCOCCOc1cc2ncnc3c2cc1OCCCNCCN(C)Cc1ccc2c(c1N3)OCO2 [Compound B4],1480 nM
4,CN1CCCCCOc2cc3c(ncnc3cc2OCCCNC(=O)OC(C)(C)C)Nc2c(ccc3c2OCO3)C1 [Compound A56],> 10000 nM
5,CN1CCCCCOc2cc3c(ncnc3cc2OCCCNC(=O)CCS(C)(=O)=O)Nc2c(ccc3c2OCO3)C1 [Compound B16],2290 nM
6,CN(CCO)CCCOc1cc2ncnc3c2cc1OCCCNCCN(C)Cc1ccc2c(c1N3)OCO2 [Compound B5],501 nM
7,CN1CCNCCCOc2cc3c(ncnc3cc2O)Nc2c(ccc3c2OCO3)C1 [Compound A23],> 10000 nM
8,COCCNCCCOc1cc2ncnc3c2cc1OCCCNCCN(C)Cc1ccc2c(c1N3)OCO2 [Compound B35],631 nM
9,CN1CCCCCOc2cc3c(ncnc3cc2O)Nc2c(ccc3c2OCO3)C1 [Compound A12],> 10000 nM
10,CN1CCCCCOc2cc3c(ncnc3cc2OCCCNCCS(C)(=O)=O)Nc2c(ccc3c2OCO3)C1 [Compound B68],692 nM
11,CN1CCN(CCCOc2cc3ncnc4c3cc2OCCCN(C(=O)OC(C)(C)C)CCN(C)Cc2ccc3c(c2N4)OCO3)CC1 [Compound A27],2240 nM
12,C[C@H]1C(=O)NCCCOc2cc3c(ncnc3cc2O)Nc2c(ccc3c2OCO3)CN1C [Compound A40],> 10000 nM
13,COc1cc2ncnc3c2cc1OCCCNCCN(C)Cc1ccc2c(c1N3)OCO2 [Compound A22],3240 nM
14,COCCOCCOc1cc2ncnc3c2cc1OCCCCCN(C)Cc1ccc2c(c1N3)OCO2 [Compound B31],2630 nM

# More lines, now with the values ahead:
row,IC50,Structure (SMILES)
1,562 nM,CN(CCO)CCCOc1cc2ncnc3c2cc1OCCCCCN(C)Cc1ccc2c(c1N3)OCO2 [Compound B15]
2,2570 nM,COc1cc2ncnc3c2cc1OCCCCCNCc1ccc2c(c1N3)OCO2 [Compound A10]
3,575 nM,CN1CCCCCOc2cc3c(ncnc3cc2OCCCN2CCCC2)Nc2c(ccc3c2OCO3)C1 [Compound B21]
4,427 nM,CN1CCNCCCOc2cc3c(ncnc3cc2OCCCN2CCOCC2)Nc2c(ccc3c2OCO3)C1 [Compound B34]
5,295 nM,CN1CCCCCOc2cc3c(ncnc3cc2OCCCN2CCN(CCO)CC2)Nc2c(ccc3c2OCO3)C1 [Compound B13]
6,263 nM,CN1CCN(CCCOc2cc3ncnc4c3cc2OCCCCCN(C)Cc2ccc3c(c2N4)OCO3)CC1 [Compound B12]
7,6460 nM,COc1cc2ncnc3c2cc1OCCCCCNCc1cc(Br)c2c(c1N3)OCO2 [Compound B8]
8,776 nM,COCCNCCCOc1cc2ncnc3c2cc1OCCCCCN(C)Cc1ccc2c(c1N3)OCO2 [Compound B70]
9,468 nM,CN1CCCCCOc2cc3c(ncnc3cc2OCCCN2CCOCC2)Nc2c(ccc3c2OCO3)C1 [Compound B18]
10,1100 nM,COCCOc1cc2ncnc3c2cc1OCCCCCN(C)Cc1ccc2c(c1N3)OCO2 [Compound B2]
11,708 nM,CN1CCCCCOc2cc3c(ncnc3cc2OCCCN2CCS(=O)(=O)CC2)Nc2c(ccc3c2OCO3)C1 [Compound B23]
12,479 nM,CN1CCCCCOc2cc3c(ncnc3cc2OCCCNCCO)Nc2c(ccc3c2OCO3)C1 [Compound B69]
13,2290 nM,COc1cc2ncnc3c2cc1OCCCCCNCc1ccc2c(c1N3)OCO2 [Compound A9]
14,933 nM,CN1CCCCCOc2cc3c(ncnc3cc2OCCCN)Nc2c(ccc3c2OCO3)C1 [Compound A57]

# Biological target: human Fyn (Homo sapiens, UniProt P06241)
# Experiment: C2: Fyn kinase assay
# Type: biochemical
# Conditions: 5 ng human Fyn, 1.0 μM unlabeled ATP, poly(Glu,Tyr) 4:1, 25° C., 10 minutes
# Description: In this assay the Fyn kinase reaction is performed at 25° C. for 10 minutes in a 96-well microtiterplate. The 25 μl reaction volume contains 8 mM MOPS pH 7.0, 20 mM Mg-acetate, 0.2 mM Na2EDTA, 0.5 mM MnCl2, 1.0 μM unlabeled ATP, 0.2 μCi AT^33P, 20 ng poly(Glu,Tyr) 4:1 and 5 ng human Fyn.
# The reaction is stopped by adding 5 μl of a 3% phosphoric acid solution. 5 μl of the reaction mixture is then spotted onto a Filtermat A filter (Wallac) and washed 3 times for 5 min. in 75 mM phosphoric acid and 1 time for 5 min. in methanol prior to drying and scintillation counting.
# Chain of human Fyn (P06241 whole entry): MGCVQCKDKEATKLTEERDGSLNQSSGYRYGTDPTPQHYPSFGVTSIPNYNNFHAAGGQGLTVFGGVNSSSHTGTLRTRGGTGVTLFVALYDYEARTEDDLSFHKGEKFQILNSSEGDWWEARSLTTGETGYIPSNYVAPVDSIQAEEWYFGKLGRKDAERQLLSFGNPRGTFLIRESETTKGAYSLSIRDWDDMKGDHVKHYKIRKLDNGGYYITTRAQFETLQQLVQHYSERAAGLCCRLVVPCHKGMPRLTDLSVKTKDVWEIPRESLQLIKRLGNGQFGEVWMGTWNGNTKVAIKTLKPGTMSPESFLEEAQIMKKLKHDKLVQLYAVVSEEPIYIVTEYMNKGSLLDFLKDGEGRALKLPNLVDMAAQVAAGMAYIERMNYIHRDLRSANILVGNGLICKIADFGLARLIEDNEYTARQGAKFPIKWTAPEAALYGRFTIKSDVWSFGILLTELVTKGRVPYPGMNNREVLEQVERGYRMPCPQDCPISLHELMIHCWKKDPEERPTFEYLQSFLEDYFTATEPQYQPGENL
row,C2: Fyn kinase pIC50,Structure (SMILES)
1,>6,COc1cc2ncnc3c2cc1OCCCCCNCc1ccc2c(c1N3)OCO2 [Compound A10]

# Same assay, conditions: 5 ng human Fyn, 1.0 μM unlabeled ATP, poly(Glu,Tyr) 4:1, 25° C., 10 minutes; read-out: C2: Fyn kinase pIC50 (converted)
row,Structure (SMILES),IC50
1,CN1CCCCCOc2cc3c(ncnc3cc2OC[C@@H](O)CN2CCS(=O)(=O)CC2)Nc2c(ccc3c2OCO3)C1 [Compound B24],< 1000 nM
2,CN1CCN(C(=O)OC(C)(C)C)CCCOc2cc3c(ncnc3cc2O)Nc2c(ccc3c2OCO3)C1 [Compound A24],> 1000 nM
3,COCCOCCOc1cc2ncnc3c2cc1OCCCNCCN(C)Cc1ccc2c(c1N3)OCO2 [Compound B4],23.4 nM
4,CN1CCCCCOc2cc3c(ncnc3cc2OCCCNC(=O)OC(C)(C)C)Nc2c(ccc3c2OCO3)C1 [Compound A56],< 1000 nM
5,CN1CCCCCOc2cc3c(ncnc3cc2OCCCNC(=O)CCS(C)(=O)=O)Nc2c(ccc3c2OCO3)C1 [Compound B16],< 1000 nM
6,CN(CCO)CCCOc1cc2ncnc3c2cc1OCCCNCCN(C)Cc1ccc2c(c1N3)OCO2 [Compound B5],20.9 nM
7,CN1CCNCCCOc2cc3c(ncnc3cc2O)Nc2c(ccc3c2OCO3)C1 [Compound A23],> 1000 nM
8,COCCNCCCOc1cc2ncnc3c2cc1OCCCNCCN(C)Cc1ccc2c(c1N3)OCO2 [Compound B35],29.5 nM
9,CN1CCCCCOc2cc3c(ncnc3cc2O)Nc2c(ccc3c2OCO3)C1 [Compound A12],34.7 nM
10,COc1cc2c3c(ncnc3c1)Nc1c(ccc3c1OCO3)CNCCCCCO2 [Compound B47],120 nM
11,CN1CCCCCOc2cc3c(ncnc3cc2OCCCNCCS(C)(=O)=O)Nc2c(ccc3c2OCO3)C1 [Compound B68],< 1000 nM
12,CN1CCN(CCCOc2cc3ncnc4c3cc2OCCCN(C(=O)OC(C)(C)C)CCN(C)Cc2ccc3c(c2N4)OCO3)CC1 [Compound A27],22.4 nM
13,C[C@H]1C(=O)NCCCOc2cc3c(ncnc3cc2O)Nc2c(ccc3c2OCO3)CN1C [Compound A40],> 1000 nM
14,COc1cc2ncnc3c2cc1OCCCNCCN(C)Cc1ccc2c(c1N3)OCO2 [Compound A22],39.8 nM
15,COCCOCCOc1cc2ncnc3c2cc1OCCCCCN(C)Cc1ccc2c(c1N3)OCO2 [Compound B31],< 1 nM

# More lines, now with the values ahead:
row,IC50,Structure (SMILES)
1,0.174 nM,CN(CCO)CCCOc1cc2ncnc3c2cc1OCCCCCN(C)Cc1ccc2c(c1N3)OCO2 [Compound B15]
2,0.0575 nM,CN1CCCCCOc2cc3c(ncnc3cc2OCCCN2CCCC2)Nc2c(ccc3c2OCO3)C1 [Compound B21]
3,< 1000 nM,CN1CCNCCCOc2cc3c(ncnc3cc2OCCCN2CCOCC2)Nc2c(ccc3c2OCO3)C1 [Compound B34]
4,3.63 nM,CN1CCCCCOc2cc3c(ncnc3cc2OCCCN2CCN(CCO)CC2)Nc2c(ccc3c2OCO3)C1 [Compound B13]
5,0.275 nM,CN1CCN(CCCOc2cc3ncnc4c3cc2OCCCCCN(C)Cc2ccc3c(c2N4)OCO3)CC1 [Compound B12]
6,16.6 nM,COc1cc2ncnc3c2cc1OCCCCCNCc1cc(Br)c2c(c1N3)OCO2 [Compound B8]
7,5.01 nM,COCCNCCCOc1cc2ncnc3c2cc1OCCCCCN(C)Cc1ccc2c(c1N3)OCO2 [Compound B70]
8,< 1 nM,CN1CCCCCOc2cc3c(ncnc3cc2OCCCN2CCOCC2)Nc2c(ccc3c2OCO3)C1 [Compound B18]
9,7.76 nM,COCCOc1cc2ncnc3c2cc1OCCCCCN(C)Cc1ccc2c(c1N3)OCO2 [Compound B2]
10,< 1000 nM,CN1CCCCCOc2cc3c(ncnc3cc2OCCCN2CCS(=O)(=O)CC2)Nc2c(ccc3c2OCO3)C1 [Compound B23]
11,6.17 nM,CN1CCCCCOc2cc3c(ncnc3cc2OCCCNCCO)Nc2c(ccc3c2OCO3)C1 [Compound B69]
12,< 1000 nM,COc1cc2ncnc3c2cc1OCCCCCNCc1ccc2c(c1N3)OCO2 [Compound A9]
13,18.2 nM,CN1CCCCCOc2cc3c(ncnc3cc2OCCCN)Nc2c(ccc3c2OCO3)C1 [Compound A57]

# System: not given
# Experiment: not given
# Conditions: not given
row,Structure (SMILES),melting point
1,CN1CCCCCOc2cc3c(ncnc3cc2OCCCNC(=O)OC(C)(C)C)Nc2c(ccc3c2OCO3)C1 [Compound A56],210 to 213 °C
2,COc1cc2c3c(ncnc3c1)Nc1c(ccc3c1OCO3)CNCCCCCO2 [Compound B47],250 °C

# Second part, the compound after the results:
row,melting point,Structure (SMILES)
1,244 °C,CN1CCN(CCCOc2cc3ncnc4c3cc2OCCCCCNCc2cc(Br)c3c(c2N4)OCO3)CC1 (as salt: HCl) [Compound B28]
2,224 °C,Brc1cc2c(c3c1OCO3)Nc1ncnc3cc(OCCCN4CCCC4)c(cc13)OCCCCCNC2 (as salt: HCl) [Compound B27]
3,241 °C,CN1CCCCCOc2cc3c(ncnc3cc2OCCCNCCO)Nc2c(cc(Br)c3c2OCO3)C1 [Compound B71]
